According to the supplement of paper PMC10307832:

What was measured:
Test in all cases: relative viability (nuclei count vs DMSO), 5 days (fraction); higher = more cells survive
[1] = compound: O=C(c1cc(Cc2n[nH]c(=O)c3ccccc23)ccc1F)N1CCN(C(=O)C2CC2)CC1 [Olaparib] + COc1cc2c(Oc3ccc(NC(=O)C4(C(=O)Nc5ccc(F)cc5)CC4)cc3F)ccnc2cc1OCCCN1CCOCC1 [Foretinib] (partner 0.25 µM)
Outline: (§1)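 Nuclei were stained with Hoechst during a one-step fixation (final 0.05% Triton X-100, 1% formaldehyde, 1 ug/ml Hoechst) carried out 5 days after dosing, then counted on 4× images. The cells, lung cancer lines in 1536-well plates, had been dosed by pin tool the day after seeding with one drug alone or a fixed anchor-drug dose plus five library-drug doses (not always all listed) in √10 steps. Relative viability is the nuclei count in treated wells divided by that in vehicle wells, and each value is the median of duplicate plates.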

[2] = compound: C[C@@H](Oc1cc(-c2cnn(C3CCNCC3)c2)cnc1N)c1c(Cl)ccc(F)c1Cl [Crizotinib] + CCNC(=O)c1noc(-c2cc(C(C)C)c(O)cc2O)c1-c1ccc(CN2CCOCC2)cc1 [Luminespib] (partner 0.01 µM)
Outline: as §1

[3] = compound: CC(C)C[C@H](NC(=O)[C@H](CCc1ccccc1)NC(=O)CN1CCOCC1)C(=O)N[C@@H](Cc1ccccc1)C(=O)N[C@@H](CC(C)C)C(=O)[C@@]1(C)CO1 [Carfilzomib] + Nc1nc2[nH]cc(CCc3ccc(C(=O)N[C@@H](CCC(=O)O)C(=O)O)cc3)c2c(=O)[nH]1 [Pemetrexed] (partner 0.2 µM)
Outline: as §1

[4] = compound: CC(C)C[C@H](NC(=O)[C@H](CCc1ccccc1)NC(=O)CN1CCOCC1)C(=O)N[C@@H](Cc1ccccc1)C(=O)N[C@@H](CC(C)C)C(=O)[C@@]1(C)CO1 [Carfilzomib] + CS(=O)(=O)N1CCN(Cc2cc3nc(-c4cccc5[nH]ncc45)nc(N4CCOCC4)c3s2)CC1 [Pictilisib] (partner 1 µM)
Outline: as §1

Row | Cell Line | relative viability ([1]; first compound 0.08 µM) | relative viability ([1]; first compound 0.253 µM) | relative viability ([1]; first compound 2.53 µM) | relative viability ([1]; first compound 8 µM) | relative viability ([2]; first compound 0.01 µM) | relative viability ([2]; first compound 0.03162 µM) | relative viability ([2]; first compound 0.1 µM) | relative viability ([2]; first compound 0.3162 µM) | relative viability ([2]; first compound 1 µM) | relative viability ([3]; first compound 0.001 µM) | relative viability ([3]; first compound 0.003162 µM) | relative viability ([3]; first compound 0.01 µM) | relative viability ([3]; first compound 0.03162 µM) | relative viability ([3]; first compound 0.1 µM) | relative viability ([4]; first compound 0.001 µM) | relative viability ([4]; first compound 0.003162 µM) | relative viability ([4]; first compound 0.01 µM) | relative viability ([4]; first compound 0.03162 µM) | relative viability ([4]; first compound 0.1 µM)
1 | SK-MES-1 | 1.05 | 0.861 | 0.907 | 0.889 | 0.669 | 0.827 | 0.771 | 0.712 | 0.76 | 1.02 | 1.1 | 1.14 | 0.786 | 0.177 | 0.338 | 0.419 | 0.337 | 0.283 | 0.174
2 | NCI-H1915 | 1.06 | 1.02 | 0.717 | 0.604 | 0.775 | 0.817 | 0.721 |  | 0.862 | 0.559 | 0.516 | 0.578 | 0.59 | 0.0792 | 0.973 | 1 | 0.8 | 0.572 | 0.123
3 | SW 1573 | 1.01 | 0.971 | 0.737 | 0.629 | 0.132 | 0.342 | 0.253 | 0.405 | 0.236 | 0.809 | 0.927 | 0.613 | 0.071 | 0.0521 | 0.517 | 0.512 | 0.404 | 0.277 | 0.0513
4 | NCI-H2087 | 1.08 | 0.921 | 0.949 | 0.736 | 0.18 | 0.181 | 0.168 |  | 0.134 | 0.624 | 0.656 | 0.57 | 0.0837 | 0.0365 | 0.802 | 0.874 | 0.552 | 0.0964 | 0.18
5 | BEN |  | 0.529 | 0.688 | 0.702 | 0.504 | 0.301 | 0.38 | 0.198 | 0.549 | 0.743 | 0.778 | 0.787 | 0.599 | 0.352 | 0.635 | 0.679 | 0.587 | 0.523 | 0.249
6 | NCI-H1650 | 1.2 | 0.996 | 1.15 | 1.35 | 0.165 | 0.193 | 0.202 | 0.18 | 0.206 | 0.343 | 0.403 | 0.312 | 0.154 | 0.166 |  | 0.685 | 0.284 | 0.127 | 0.151
7 | HCC-44 |  |  |  |  | 1.03 | 0.99 | 0.988 | 1.05 | 1.06 | 0.665 | 0.605 | 0.658 | 0.705 | 0.685 | 0.506 | 0.674 | 0.57 | 0.654 | 0.166
8 | Calu-6 | 0.892 | 0.789 | 0.855 | 0.536 |  |  |  |  |  |  |  |  |  |  | 1.01 | 0.97 | 0.798 | 0.108 | 0.0567
9 | NCI-H2342 | 1.18 | 1.18 | 0.977 | 0.948 | 0.635 | 0.931 | 0.674 | 0.705 | 0.815 | 0.732 | 0.786 | 0.853 | 0.78 | 0.449 |  |  |  |  | 
10 | NCI-H522 |  |  |  |  | 1.05 | 1.06 | 1.05 | 1.15 | 1.08 | 1.19 | 0.906 | 0.963 | 0.717 | 0.339 |  |  |  |  | 
11 | NCI-H1623 | 0.954 | 0.88 | 0.814 | 0.647 |  | 0.469 | 0.502 | 0.486 | 0.5 |  |  |  |  |  |  |  |  |  | 
12 | SW 900 | 0.999 | 0.744 | 0.994 | 0.659 | 0.172 | 0.164 | 0.19 | 0.194 | 0.175 |  | 0.497 | 0.176 | 0.152 | 0.216 |  |  |  |  | 
13 | NCI-H1299 | 1.13 | 1.07 | 1.11 | 1.07 |  |  |  |  |  |  |  |  |  |  | 0.735 | 0.838 | 0.6 | 0.0711 | 0.0334
14 | ABC-1 | 1.09 | 1.31 | 0.98 | 0.922 |  | 0.865 | 0.628 | 0.496 |  |  |  |  |  |  | 0.691 | 0.471 | 0.237 | 0.249 | 0.216
15 | HCC-366 | 0.875 | 0.908 | 0.889 | 0.636 |  |  |  |  |  | 0.158 | 0.149 | 0.2 | 0.17 | 0.039 | 0.129 | 0.175 | 0.17 | 0.312 | 0.0504
16 | IA-LM | 1.36 | 0.978 | 1.06 | 1.02 |  |  |  |  |  |  |  |  |  |  | 0.293 | 0.305 | 0.292 | 0.0283 | 0.0095
17 | HCC-78 | 0.622 | 0.562 | 0.557 | 0.514 |  |  |  |  |  | 0.876 | 0.868 | 0.904 | 0.967 | 0.9 | 0.207 | 0.194 | 0.236 | 0.134 | 0.117
18 | NCI-H727 | 0.843 | 1.06 | 0.911 | 0.703 |  | 0.346 | 0.296 |  | 0.509 |  |  |  |  |  | 0.32 | 0.43 | 0.418 | 0.215 | 0.148
19 | EBC-1 | 0.116 | 0.094 | 0.1 | 0.107 |  |  |  |  |  |  |  |  |  |  | 0.407 | 0.347 | 0.192 | 0.0926 | 0.117
20 | NCI-H1703 | 0.469 | 0.328 | 0.333 | 0.364 |  |  |  |  |  |  |  |  |  |  | 0.202 | 0.3 | 0.17 | 0.16 | 0.144
